Measurements from ChEMBL document CHEMBL1145376, “C-8 Modifications of 3-alkyl-1,8-dibenzylxanthines as inhibitors of human cytosolic phosphoenolpyruvate carboxykinase” (Bioorg Med Chem Lett, 2007).

What follows are molecules tested against T1, Phosphoenolpyruvate carboxykinase, cytosolic [GTP] (Rattus norvegicus, UniProt P07379) (assay: Inhibition of cPEPCK in rat H4IIE cells assessed as effect on glucose production).
T1 sequence (P07379 whole entry): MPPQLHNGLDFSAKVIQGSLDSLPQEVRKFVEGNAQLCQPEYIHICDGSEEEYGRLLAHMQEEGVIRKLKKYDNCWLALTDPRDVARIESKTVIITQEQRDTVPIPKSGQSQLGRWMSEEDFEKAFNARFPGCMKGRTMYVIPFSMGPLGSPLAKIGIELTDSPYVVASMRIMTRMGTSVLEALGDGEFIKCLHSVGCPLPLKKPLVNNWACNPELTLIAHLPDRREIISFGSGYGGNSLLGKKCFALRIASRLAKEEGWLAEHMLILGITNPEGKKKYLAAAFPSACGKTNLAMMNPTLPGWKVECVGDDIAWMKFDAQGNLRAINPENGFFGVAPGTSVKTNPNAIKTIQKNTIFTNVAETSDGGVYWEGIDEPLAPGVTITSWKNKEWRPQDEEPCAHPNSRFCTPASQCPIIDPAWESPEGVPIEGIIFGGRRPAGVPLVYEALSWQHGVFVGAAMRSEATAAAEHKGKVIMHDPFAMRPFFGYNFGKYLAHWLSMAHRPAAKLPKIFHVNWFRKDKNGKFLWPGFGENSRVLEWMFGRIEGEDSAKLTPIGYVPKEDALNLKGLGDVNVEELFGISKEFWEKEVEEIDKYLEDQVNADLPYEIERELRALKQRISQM
Assay type: cell-based

Structure (SMILES)	EC50 [µM]
CCCCn1c(=O)n(Cc2ccccc2F)c(=O)c2[nH]c(Cc3ccc(NC(C)=O)cc3)nc21	8.6
CCCCn1c(=O)n(Cc2ccccc2F)c(=O)c2[nH]c(Cc3ccc(NS(=O)(=O)c4c(C)nn(C)c4Cl)cc3)nc21	3.97
CC(=O)Nc1ccc(Cc2nc3c([nH]2)c(=O)n(Cc2ccccc2F)c(=O)n3CC2CC2)cc1	4.7
Cc1nn(C)c(Cl)c1S(=O)(=O)Nc1ccc(Cc2nc3c([nH]2)c(=O)n(Cc2ccccc2F)c(=O)n3CC2CC2)cc1	2.17
Cc1nn(C)cc1S(=O)(=O)Nc1ccc(Cc2nc3c([nH]2)c(=O)n(Cc2ccccc2F)c(=O)n3CC2CC2)cc1	5.57
Cc1noc(C)c1S(=O)(=O)Nc1ccc(Cc2nc3c([nH]2)c(=O)n(Cc2ccccc2F)c(=O)n3CC2CC2)cc1	3.4
O=c1c2[nH]c(Cc3ccc(NS(=O)(=O)c4cccnc4)cc3)nc2n(CC2CC2)c(=O)n1Cc1ccccc1F	5.5
Cn1cc(S(=O)(=O)Nc2ccc(Cc3nc4c([nH]3)c(=O)n(Cc3ccccc3F)c(=O)n4CC3CC3)cc2)cn1	8.75
Cc1nc(N)sc1S(=O)(=O)Nc1ccc(Cc2nc3c([nH]2)c(=O)n(Cc2ccccc2F)c(=O)n3CC2CC2)cc1	8.2

Each molecule was assayed against T2, Phosphoenolpyruvate carboxykinase, cytosolic [GTP] (Homo sapiens, UniProt P35558) (assay: Inhibition of human cPEPCK).
T2 sequence (P35558 whole entry): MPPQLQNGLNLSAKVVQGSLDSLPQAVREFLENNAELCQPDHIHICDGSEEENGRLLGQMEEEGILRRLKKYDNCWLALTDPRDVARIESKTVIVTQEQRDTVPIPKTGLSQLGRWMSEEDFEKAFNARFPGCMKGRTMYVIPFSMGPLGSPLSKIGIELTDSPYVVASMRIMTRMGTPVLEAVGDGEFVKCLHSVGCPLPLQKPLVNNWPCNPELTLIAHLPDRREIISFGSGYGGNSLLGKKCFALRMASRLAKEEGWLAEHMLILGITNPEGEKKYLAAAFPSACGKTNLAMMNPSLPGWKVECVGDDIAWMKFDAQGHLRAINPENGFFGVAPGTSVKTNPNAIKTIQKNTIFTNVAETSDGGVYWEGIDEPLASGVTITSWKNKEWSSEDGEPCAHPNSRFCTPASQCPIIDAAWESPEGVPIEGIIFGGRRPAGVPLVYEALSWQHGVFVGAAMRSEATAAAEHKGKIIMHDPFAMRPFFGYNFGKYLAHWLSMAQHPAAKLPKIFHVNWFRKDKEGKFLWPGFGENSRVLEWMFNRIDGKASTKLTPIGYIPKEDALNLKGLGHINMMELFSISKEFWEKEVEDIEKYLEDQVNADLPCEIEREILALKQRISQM

Structure (SMILES)	IC50 [µM]
CCCCn1c(=O)n(Cc2ccccc2F)c(=O)c2[nH]c(Cc3ccc(NC(C)=O)cc3)nc21	2.11
CCCCn1c(=O)n(Cc2ccccc2F)c(=O)c2[nH]c(Cc3ccc(N)cc3N)nc21	5.65
CCCCn1c(=O)n(Cc2ccccc2F)c(=O)c2[nH]c(Cc3ccc(NS(=O)(=O)c4c(C)nn(C)c4Cl)cc3)nc21	0.54
CC(=O)Nc1ccc(Cc2nc3c([nH]2)c(=O)n(Cc2ccccc2F)c(=O)n3CC2CC2)cc1	0.69
CN(C)CC(=O)Nc1ccc(Cc2nc3c([nH]2)c(=O)n(Cc2ccccc2F)c(=O)n3CC2CC2)cc1	2.07
Cc1nn(C)cc1S(=O)(=O)Nc1ccc(Cc2nc3c([nH]2)c(=O)n(Cc2ccccc2F)c(=O)n3CC2CC2)cc1	0.24
CCCCn1c(=O)n(Cc2ccccc2F)c(=O)c2[nH]c(Cc3ccc(NC(=O)C(F)(F)F)cc3)nc21	2.3
Nc1ccc(Cc2nc3c([nH]2)c(=O)n(Cc2ccccc2F)c(=O)n3CC2CC2)cc1	1.56
CCCCn1c(=O)n(Cc2ccccc2F)c(=O)c2[nH]c(Cc3ccc(N)cc3)nc21	2.56
O=C(Nc1ccc(Cc2nc3c([nH]2)c(=O)n(Cc2ccccc2F)c(=O)n3CC2CC2)cc1)C(F)(F)F	1.8
CCCCn1c(=O)n(Cc2ccccc2F)c(=O)c2[nH]c(Cc3ccc(NC(C)=O)cc3NC(C)=O)nc21	8.7

The molecules below were run against T3, Phosphoenolpyruvate carboxykinase, cytosolic [GTP] (Homo sapiens) (UniProt P35558) (assay: Inhibition of human cPEPCK at 1 uM).
T3 sequence (whole entry): T2 sequence (P35558 whole entry)

Structure (SMILES)	inhibition [%]
CCCCn1c(=O)n(Cc2ccccc2F)c(=O)c2[nH]c(Cc3ccc(NS(=O)(=O)c4ccsc4C(=O)OC)cc3)nc21	19
CCCCn1c(=O)n(Cc2ccccc2F)c(=O)c2[nH]c(Cc3ccc(NS(=O)(=O)c4cccs4)cc3)nc21	30
CCCCn1c(=O)n(Cc2ccccc2F)c(=O)c2[nH]c(Cc3ccc(NS(=O)(=O)Cc4ccccc4)cc3)nc21	31
CCCCn1c(=O)n(Cc2ccccc2F)c(=O)c2[nH]c(Cc3ccc(NS(=O)(=O)c4ccccc4)cc3)nc21	22
